Our source for the MIC values is ChEMBL document CHEMBL3046725, “Synthesis and preliminary antibacterial evaluation of hydroxamic acid and N-formyl hydroxylamine derivatives bearing oxazole ring” (2013).

Molecules are shown by their SMILES. ≈ marks a conversion by molar mass, not a printed value.

Common to all, as to format: functional
Experiment [1] has as its system Staphylococcus aureus. The experiment can be described thus: Antibacterial activity against Staphylococcus aureus ATCC 25923 after 24 hr by broth microdilution method. The settings on record: ATCC 25923, 24 h.
The test system of experiment [2] is Pseudomonas aeruginosa. The experiment can be described thus: Antibacterial activity against Pseudomonas aeruginosa ATCC 27853 after 24 hr by broth microdilution method. The settings on record: ATCC 27853, 24 h. (In broth dilution the organism is exposed to a series of concentrations in liquid medium.)
Experiment [3] relates to Escherichia coli. The experiment can be described thus: Antibacterial activity against Escherichia coli ATCC 25922 after 24 hr by broth microdilution method. The conditions noted are these: ATCC 25922, 24 h.
Experiment [4] concerns Streptococcus pneumoniae. The experiment in a line: Antibacterial activity against Streptococcus pneumoniae NCTC 7466 after 24 hr by broth microdilution method. The settings on record: NCTC 7466, 24 h.

The MIC is the lowest concentration that inhibits growth of the organism. Higher therefore signals weaker potency. With `CCCC[C@H](CN(O)C=O)C(=O)N[C@H](c1nc(C(=O)Nc2ccc(F)c(F)c2)co1)C(C)C`, the MIC in experiment [1], in experiment [2], in experiment [3] and in experiment [4] was greater than 200 µg/mL each time.

Consider `CCCC[C@H](CN(O)C=O)C(=O)N[C@H](c1nc(C(=O)Nc2ccc(C)cc2)co1)C(C)C`, for which the MIC in experiment [1], in experiment [2], in experiment [3] and in experiment [4] was greater than 200 µg/mL in each case.

`CCCC[C@H](CN(O)C=O)C(=O)N[C@H](c1nc(C(=O)Nc2ccc(F)cn2)co1)C(C)C`: the minimum inhibitory concentration (MIC) in experiment [1], in experiment [2], in experiment [3] and in experiment [4] was greater than 200 µg/mL throughout.

`CCCC[C@H](CC(=O)NO)C(=O)N[C@H](c1nc(C(=O)Nc2ccc(F)cn2)co1)C(C)C`: the minimum inhibitory concentration (MIC) in experiment [1] was 100 µg/mL (≈ 222 µM); in experiment [2], 100 µg/mL (≈ 222 µM); in experiment [3], 50 µg/mL (≈ 111 µM); in experiment [4], greater than 200 µg/mL.

`CCCC[C@H](CN(O)C=O)C(=O)N[C@H](c1nc(C(=O)N(CC)CC)co1)C(C)C`: the MIC came to 25 µg/mL (≈ 60.9 µM) in experiment [1], 100 µg/mL (≈ 244 µM) in experiment [2], 12.5 µg/mL (≈ 30.4 µM) in experiment [3] and 50 µg/mL (≈ 122 µM) in experiment [4].

In the case of `CCCC[C@H](CC(=O)NO)C(=O)N[C@H](c1nc(C(=O)Nc2ccc(F)cc2)co1)C(C)C`, the MIC in experiment [1] was 100 µg/mL (≈ 223 µM); in experiment [2] it was 100 µg/mL (≈ 223 µM); in experiment [3], 100 µg/mL (≈ 223 µM); in experiment [4] it was greater than 200 µg/mL.

Take `CCCC[C@H](CN(O)C=O)C(=O)N[C@H](c1nc(C(=O)N2CCCCC2)co1)C(C)C`: the minimal inhibitory concentration (MIC) is 50 µg/mL (≈ 118 µM) in experiment [1], 100 µg/mL (≈ 237 µM) in experiment [2], 25 µg/mL (≈ 59.2 µM) in experiment [3] and greater than 200 µg/mL in experiment [4].

In experiment [4], `Cl.O=C(O)c1cn(C2CC2)c2cc(N3CCNCC3)c(F)cc2c1=O` [CIPROFLOXACIN HYDROCHLORIDE] showed an MIC of 6.25 µg/mL.

As to `CCCC[C@H](CN(O)C=O)C(=O)N[C@H](c1nc(C(=O)Nc2ccc3c(c2)OCO3)co1)C(C)C`, the minimal inhibitory concentration (MIC) in experiment [1], in experiment [2], in experiment [3] and in experiment [4] was greater than 200 µg/mL in each case.

In the case of `CCCC[C@H](CN(O)C=O)C(=O)N[C@H](c1nc(C(=O)Nc2ccc(F)cc2)co1)C(C)C`, the MIC in experiment [1], in experiment [2], in experiment [3] and in experiment [4] was greater than 200 µg/mL in each case.

As for `CCCC[C@H](CC(=O)NO)C(=O)N[C@H](c1nc(C(=O)Nc2ccc(C)cc2)co1)C(C)C`, the MIC in experiment [1] stood at 50 µg/mL (≈ 112 µM); in experiment [2], 100 µg/mL (≈ 225 µM); in experiment [3], 25 µg/mL (≈ 56.2 µM); in experiment [4], 200 µg/mL (≈ 450 µM).
